Data published in patent US20090069359A1 (priority 2006, published 2009).

Columns and labels:
facial wrinkles = details: human, in vivo
hair loss and baldness = tested on: hair loss and baldness; set-up: species or system human; details: in vivo
erectile dysfunction = tested on: erectile dysfunction; set-up: species or system human; details: in vivo
Peyronie's disease = tested on: Peyronie's disease; set-up: species or system human; details: in vivo

Compound: CC1=C(/C=C/C(C)=C/C=C/C(C)=C/C(=O)O)C(C)(C)CCC1 [Retin A, tretinoin]
- duration of wrinkle reducing effect (facial wrinkles): lasts up to one week
- period over which wrinkle reducing effect occurs (facial wrinkles): 72 h
- wrinkle treatment outcome (facial wrinkles): used successfully

Compound: C[C@H]1C[C@H]2[C@@H]3CCC4=CC(=O)C=C[C@]4(C)[C@@]3(F)[C@@H](O)C[C@]2(C)[C@@]1(O)C(=O)CO [betamethasone]
- time of treatment after which new hair growth began (hair loss and baldness): 30 days

Compound: CC12CCC(CC1)C(C)(C)O2 [eucalyptol]
- erections (erectile dysfunction): improved erections were obtained

Compound: CC1CCC(C(C)C)C(O)C1 (stereo not drawn) [menthol]
- erections (erectile dysfunction): improved erections were obtained

Compound: Nc1cc(N2CCCCC2)nc(N)[n+]1[O-] [minoxidil]
- time of treatment after which new hair growth began (hair loss and baldness): 30 days

Compound: CC(C)NCC(O)COc1cccc2ccccc12 (stereo not drawn) [propranolol]
- penile curvature outcome (Peyronie's disease): gradually attained a straightened penis
- time to straightened penis (Peyronie's disease): ≤ 90 days

Compound: botulinum toxina [Botox]
- duration of wrinkle reducing effect (facial wrinkles): lasts up to one week
- period over which wrinkle reducing effect occurs (facial wrinkles): 72 h
- wrinkle treatment outcome (facial wrinkles): used successfully
